Measured values published in patent US6369059B1, “Tetracyclic derivatives, process of preparation and use” (ICOS Corporation, priority 1994, dated 2002).

| SMILES | melting point |
| --- | --- |
| CN1CC(=O)N2[C@@H](c3ccc(Cl)c(Cl)c3)c3[nH]c4ccccc4c3C[C@@H]2C1=O (relative stereo) [Example 43, Cis-2,3,6,7,12,12a-Hexahydro-6-(3,4-dichlorophenyl)-2-methyl-pyrazino[2′,1′:6,1]pyrido[3,4-b]indole-1,4-dione] | > 260 °C |
| C[C@@H]1C(=O)N2[C@H](c3ccc4c(c3)OCO4)c3[nH]c4ccccc4c3C[C@@H]2C(=O)N1C [Example 116, (3R,6R,12aR)-2,3,6,7,12,12a-Hexahydro-2,3-dimethyl-6-(3,4-methylenedioxyphenyl)-pyrazino[2′,1′:6,1]pyrido[3,4-b]indole-1,4-dione] | 219 to 220 °C |
| O=C1[C@H]2Cc3c([nH]c4ccccc34)[C@H](c3ccc(Br)s3)N2C(=O)CN1CC1CC1 (relative stereo) [Example 54, Cis-2,3,6,7,12,12a-Hexahydro-6-(5-bromo-2-thienyl)-2-cyclopropylmethyl-pyrazino[2′,1′:6,1]pyrido[3,4-b]indole-1,4-dione] | 190 °C |
| COc1ccc([C@@H]2c3[nH]c4ccccc4c3C[C@@H]3C(=O)N(C)CC(=O)N23)cc1 [Example 107, (6R,12aR)-2,3,6,7,12,12a-Hexahydro-6-(4-methoxyphenyl)-2-methyl-pyrazino[2′,1′:6,1]pyrido[3,4-b]indole-1,4-dione] | 285 to 288 °C |
| CCCCN1CC(=O)N2[C@H](c3ccc4c(c3)OCO4)c3[nH]c4ccccc4c3C[C@@H]2C1=O [Example 80, (6R,12aR)-2,3,6,7,12,12a-Hexahydro-2-butyl-6(3,4-methylenedioxyphenyl)-pyrazino[2′,1′:6,1]pyrido[3,4-b]indole-1,4-dione] | 209 to 210 °C |
| CCN1CC(=O)N2[C@@H](c3ccc(OC)cc3)c3[nH]c4ccccc4c3C[C@@H]2C1=O (relative stereo) [Example 27, Cis-2,3,6,7,12,12a-Hexahydro-2-ethyl-6(4-methoxyphenyl)-pyrazino[2′,1′:6,1]pyrido[3,4-b]indole-1,4-dione] | 245 to 255 °C |
| CCc1ccc([C@H]2c3[nH]c4ccccc4c3C[C@@H]3C(=O)N(CC4CC4)CC(=O)N23)cc1 (relative stereo) [Example 73, Cis-2,3,6,7,12,12a-Hexahydro-6-(4-ethylphenyl)-2-cyclopropylmethyl-pyrazino[2′,1′:6,1]pyrido[3,4-b]indole-1,4-dione] | 160 °C |
| Cc1ccc([C@H]2c3[nH]c4ccccc4c3C[C@@H]3C(=O)N(C(C)C)CC(=O)N23)cc1 (relative stereo) [Example 62, Cis-2,3,6,7,12,12a-Hexahydro-2-isopropyl-6-(4-methylphenyl)-pyrazino[2′,1′:6,1]pyrido[3,4-b]indole-1,4-dione] | 170 °C |
| CN1CC(=O)N2[C@@H](c3cccnc3)c3[nH]c4ccccc4c3C[C@@H]2C1=O (relative stereo) [Example 77, Cis-2,3,6,7,12,12a-Hexahydro-2-methyl-6-(3-pyridyl)-pyrazino[2′,1′:6,1]pyrido[3,4-b]indole-1,4-dione] | 312 °C |
| CN1CC(=O)N2[C@@H](c3ccsc3)c3[nH]c4ccccc4c3C[C@@H]2C1=O (relative stereo) [Example 57, Cis-2,3,6,7,12,12a-Hexahydro-2-methyl-6-(3-thienyl)-pyrazino[2′,1′:6,1]pyrido[3,4-b]indole-1,4-dione] | 290 to 295 °C |
| CCOc1ccc([C@H]2c3[nH]c4ccccc4c3C[C@@H]3C(=O)N(C)CC(=O)N23)cc1 (relative stereo) [Example 34, Cis-2,3,6,7,12,12a-Hexahydro-6-(4-ethoxyphenyl)-2methyl-pyrazino[2′,1′:6,1]pyrido[3,4-b]indole-1,4-dione] | 247 to 248 °C |
| CN1CC(=O)N2[C@@H](c3ccc(OC(F)(F)F)cc3)c3[nH]c4ccccc4c3C[C@@H]2C1=O (relative stereo) [Example 67, Cis-2,3,6,7,12,12a-Hexahydro-2-methyl-6-(4-trifluoromethoxyphenyl)-pyrazino[2′,1′:6,1]pyrido[3,4-b]indole-1,4-dione] | 174 to 180 °C |
| CCCCN1CC(=O)N2[C@@H](c3ccc(OC)cc3)c3[nH]c4ccccc4c3C[C@@H]2C1=O (relative stereo) [Example 29, Cis-2,3,6,7,12,12a-Hexahydro-2-butyl-6-(4-methoxyphenyl)-pyrazino[2′,1′:6,1]pyrido[3,4-b]indole-1,4-dione] | 157 °C |
| CN1CC(=O)N2[C@@H](c3ccc(O)cc3)c3[nH]c4ccccc4c3C[C@@H]2C1=O (relative stereo) [Example 68, Cis-2,3,6,7,12,12a-Hexahydro-2-methyl-6-(4-hydroxyphenyl)-pyrazino[2′,1′:6,1]pyrido[3,4-b]indole-1,4-dione] | 179 to 180 °C |
| COc1ccc([C@H]2c3[nH]c4ccccc4c3C[C@H]3C(=O)N(C)CC(=O)N23)cc1 (relative stereo) [Example 26, Trans-2,3,6,7,12,12a-Hexahydro-6-(4-methoxyphenyl)-2-methyl-pyrazino[2′,1′:6,1]pyrido[3,4-b]indole-1,4-dione] | 225 to 228 °C |
| COc1ccc([C@@H]2c3[nH]c4ccccc4c3C[C@@H]3C(=O)N(C4CCCC4)CC(=O)N23)cc1Cl [Example 88, (6R,12aR)-2,3,6,7,12,12a-Hexahydro-2-cyclopentyl6-(3-chloro-4-methoxyphenyl)-pyrazino[2′,1′:6,1]pyrido[3,4-b]indole-1,4-dione] | 260 to 262 °C |
| CCCCN1CC(=O)N2[C@@H](c3ccc([N+](=O)[O-])cc3)c3[nH]c4ccccc4c3C[C@@H]2C1=O (relative stereo) [Example 75, Cis-2,3,6,7,12,12a-Hexahydro-2-butyl-6-(4-nitrophenyl)-pyrazino[2′,1′:6,1]pyrido[3,4-b]indole-1,4-dione] | 182 °C |
| Cc1cccc([C@H]2c3[nH]c4ccccc4c3C[C@@H]3C(=O)N(C)CC(=O)N23)c1 (relative stereo) [Example 65, Cis-2,3,6,7,12,12a-Hexahydro-2-methyl-6-(3-methylphenyl)-pyrazino[2′,1′:6,1]pyrido[3,4-b]indole-1,4-dione] | > 260 °C |
| O=C1[C@H]2Cc3c([nH]c4ccccc34)[C@H](c3ccc(Br)s3)N2C(=O)CN1C1CCCC1 (relative stereo) [Example 55, Cis-2,3,6,7,12,12a-Hexahydro-6-(5-bromo-2-thienyl)-2-cyclopentyl-pyrazino[2′,1′:6,1]pyrido[3,4-b]indole-1,4-dione] | 252 °C |
| C[C@H]1C(=O)N2[C@H](c3ccc4c(c3)OCO4)c3[nH]c4ccccc4c3C[C@@H]2C(=O)N1C [Example 117, (3S,6R,12aR)-2,3,6,7,12,12a-Hexahydro-2,3-dimethyl-6-(3,4-methylenedioxyphenyl)-pyrazino[2′,1′:6,1]pyrido[3,4-b]indole-1,4-dione] | 307 to 309 °C |
| CN1CC(=O)N2[C@H](c3ccc4c(c3)CCC4)c3[nH]c4ccccc4c3C[C@@H]2C1=O [Example 93, (6R,12aR)-2,3,6,7,12,12a-Hexahydro-6-(5-indanyl)-2-methyl-pyrazino[2′,1′:6,1]pyrido[3,4-b]indole-1,4-dione] | 262 °C |
| CCCCN1CC(=O)N2[C@@H](c3ccc(N)cc3)c3[nH]c4ccccc4c3C[C@@H]2C1=O (relative stereo) [Example 98, Cis-2,3,6,7,12,12a-Hexahydro-6-(4-aminophenyl)-2-butyl-pyrazino[2′,1′:6,1]pyrido[3,4-b]indole-1,4-dione] | 192 °C |
| COc1cc([C@H]2c3[nH]c4ccccc4c3C[C@@H]3C(=O)N(C)CC(=O)N23)ccc1O (relative stereo) [Example 70, Cis-2,3,6,7,12,12a-Hexahydro-6-(4-hydroxy-3-methoxyphenyl)-2-methyl-pyrazino[2′,1′:6,1]pyrido[3,4-b]indole-1,4-dione] | 264 to 265 °C |
| O=C1[C@H]2Cc3c([nH]c4ccccc34)[C@H](c3ccc4c(c3)OCO4)N2C(=O)CN1Cc1ccccn1 (relative stereo) [Example 10, Cis-2,3,6,7,12,12a-Hexahydro-2-(2-pyridylmethyl)-6-(3,4-methylenedioxyphenyl)-pyrazino[2′,1′:6,1]pyrido[3,4-b]indole-1,4-dione] | 285 to 286 °C |
| Cc1ccc2[nH]c3c(c2c1)C[C@@H]1C(=O)N(C)CC(=O)N1[C@H]3c1ccc2c(c1)OCO2 (relative stereo) [Example 96, Cis-2,3,6,7,12,12a-Hexahydro-2,10-dimethyl-6-(3,4-methylenedioxyphenyl)-pyrazino[2′,1′:6,1]pyrido[3,4-b]indole-1,4-dione] | 275 °C |
| CCc1ccc([C@H]2c3[nH]c4ccccc4c3C[C@@H]3C(=O)N(C)CC(=O)N23)cc1 (relative stereo) [Example 112, Cis-2,3,6,7,12,12a-Hexahydro-6-(4-ethylphenyl)-2-methyl-pyrazino[2′,1′:6,1]pyrido[3,4-b]indole-1,4-dione] | 254 °C |
| CCCCN1CC(=O)N2[C@@H](c3ccc(OC)cc3)c3[nH]c4ccccc4c3C[C@H]2C1=O (relative stereo) [Example 30, Trans-2,3,6,7,12,12a-Hexahydro-2-butyl-6-(4-methoxyphenyl)-pyrazino[2′,1′:6,1]pyrido[3,4-b]indole-1,4-dione] | 212 to 214 °C |
| CCc1ccc([C@H]2c3[nH]c4ccccc4c3C[C@@H]3C(=O)N(C(C)C)CC(=O)N23)cc1 (relative stereo) [Example 72, Cis-2,3,6,7,12,12a-Hexahydro-6-(4-ethylphenyl)-2-isopropyl-pyrazino[2′,1′:6,1]pyrido[3,4-b]indole-1,4-dione] | 130 °C |
| Cc1ccc([C@H]2c3[nH]c4ccccc4c3C[C@@H]3C(=O)N(C)CC(=O)N23)cc1 (relative stereo) [Example 61, Cis-2,3,6,7,12,12a-Hexahydro-2-methyl-6-(4-methylphenyl)-pyrazino[2′,1′:6,1]pyrido[3,4-b]indole-1,4-dione] | > 260 °C |
| C#CCN1CC(=O)N2[C@H](c3ccc4c(c3)OCO4)c3[nH]c4ccccc4c3C[C@@H]2C1=O [Example 102, (6R,12aR)-2,3,6,7,12,12a-Hexahydro-6-(3,4-methylenedioxyphenyl)-2-(2-propynyl)-pyrazino[2′,1′:6,1]pyrido[3,4-b]indole-1,4-dione] | 271 °C |
